Reference: the supplement of paper PMC8960247
± gives the standard error.

Key:
[1] = tested on: UMB1949 (TSC2-deficient); experiment: relative viability vs DMSO (fraction); higher = less cytotoxic; conditions: serum: 0.1% FBS, 72 h;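 also: renal angiomyolipoma cell lines screened in 384-well plates, viability normalized per plate to DMSO-treated cells, each plate carrying 50 nM rapamycin and 1 µM staurosporine controls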
[2] = tested on: 621-102 (TSC2-deficient); experiment: as above; conditions: serum: 0.1% FBS, 72 h
[3] = tested on: 621-103 (TSC2-rescued); experiment: relative viability vs DMSO; higher = less cytotoxic; conditions: serum: 10% FBS, 72 h
[4] = tested on: 621-102 (TSC2-deficient); experiment: as above; conditions: serum: 10% FBS, 72 h

| Compound | relative viability ([1]; 0.0128 nM) | relative viability ([1]; 0.064 nM) | relative viability ([1]; 0.32 nM) | relative viability ([1]; 1.6 nM) | relative viability ([1]; 8 nM) | relative viability ([1]; 40 nM) | relative viability ([1]; 200 nM) | relative viability ([1]; 1000 nM) | relative viability ([1]; 5000 nM) | relative viability ([2]; 0.0128 nM) | relative viability ([2]; 0.064 nM) | relative viability ([2]; 0.32 nM) | relative viability ([2]; 1.6 nM) | relative viability ([2]; 8 nM) | relative viability ([2]; 40 nM) | relative viability ([2]; 200 nM) | relative viability ([2]; 1000 nM) | relative viability ([2]; 5000 nM) | relative viability ([3]; 0.0001 µM) | relative viability ([3]; 0.001 µM) | relative viability ([3]; 0.01 µM) | relative viability ([3]; 0.1 µM) | relative viability ([3]; 1 µM) | relative viability ([3]; 10 µM) | relative viability ([4]; 0.0001 µM) | relative viability ([4]; 0.001 µM) | relative viability ([4]; 0.01 µM) | relative viability ([4]; 0.1 µM) | relative viability ([4]; 1 µM) | relative viability ([4]; 10 µM) |
| --- | --- | --- | --- | --- | --- | --- | --- | --- | --- | --- | --- | --- | --- | --- | --- | --- | --- | --- | --- | --- | --- | --- | --- | --- | --- | --- | --- | --- | --- | --- |
| CC(C)(C)c1cnc(CSc2cnc(NC(=O)C3CCNCC3)s2)o1 | 1.14 | 1.05 | 1.1 | 1.12 | 1.07 | 0.771 | 0.00698 | 0.00188 | 0.00107 | 1.06 | 1.14 | 1.02 | 1.07 | 0.654 | 0.112 | 0.00431 | 0.00292 | 0.00164 | 99.3 ± 1.4% | 96.57 ± 0.27% | 96.563 ± 0.042% | 49.5 ± 4.3% | 21.27 ± 0.21% | 16.3 ± 1.4% | 102.3 ± 0.73% | 107.6 ± 0.94% | 102 ± 3.9% | 51.1 ± 3.1% | 15.7 ± 0.57% | 8.84 ± 0.46% |
| CCOc1ccn(-c2ccc(F)cc2)c(=O)c1C(=O)Nc1ccc(Oc2ccnc(N)c2Cl)c(F)c1 | 0.977 | 1.06 | 0.983 | 1.01 | 0.867 | 1.03 | 1.02 | 0.984 | 0.0304 | 1.04 | 0.924 | 0.972 | 0.852 | 0.854 | 0.991 | 0.877 | 0.756 | 0.0351 | 88.1 ± 3.7% | 93.98 ± 0.29% | 98.93 ± 0.32% | 99.4 ± 1.1% | 97.6 ± 3.9% | 90.8 ± 4.7% | 106 ± 3.3% | 101.7 ± 0.87% | 103 ± 2.8% | 104.97 ± 0.1% | 100 ± 1.6% | 97.17 ± 0.96% |
| CCc1cccc(CC)c1NC(=O)N1Cc2[nH]nc(NC(=O)c3ccc(N4CCN(C)CC4)cc3)c2C1 | 0.986 | 1.13 | 1.17 | 0.98 | 0.853 | 0.0445 | 0.00761 | 0.00148 | 0.000776 | 1.02 | 0.947 | 1.01 | 0.767 | 0.524 | 0.292 | 0.0956 | 0.0612 | 0.00895 | 103 ± 1.6% | 101.9 ± 0.41% | 104.5 ± 0.47% | 103 ± 1.4% | 64.8 ± 1.1% | 17.8 ± 0.74% | 100 ± 7.8% | 86.5 ± 5.1% | 101 ± 3.2% | 91.7 ± 2.3% | 60.9 ± 2% | 30.4 ± 1.4% |
| CO[C@@H](C(=O)N1Cc2[nH]nc(NC(=O)c3ccc(N4CCN(C)CC4)cc3)c2C1)c1ccccc1 | 0.936 | 0.879 | 0.868 | 1.02 | 0.261 | 0.037 | 0.0271 | 0.00276 | 0.000648 | 0.925 | 0.972 | 0.92 | 0.989 | 0.816 | 0.325 | 0.0618 | 0.0757 | 0.00444 | 85.7 ± 2.3% | 90.8 ± 0.93% | 92.6 ± 5% | 89.5 ± 2.8% | 62.3 ± 1.8% | 11.5 ± 0.39% | 105 ± 3.9% | 101 ± 2.8% | 98 ± 8.5% | 91.8 ± 2.3% | 64.1 ± 0.79% | 31.6 ± 0.91% |
| Cc1cc(Nc2cc(CN3CCOCC3)c3nc(C)c(Cc4ccc(Cl)cc4F)n3n2)n[nH]1 | 1.1 | 1 | 1.03 | 0.938 | 1 | 0.885 | 0.753 | 0.0134 | 0.000916 | 1.15 | 1.05 | 1.08 | 0.98 | 1.05 | 0.925 | 0.787 | 0.014 | 0.000958 | 106.8 ± 0.47% | 96.94 ± 0.68% | 90.05 ± 0.81% | 98.4 ± 5.3% | 87.2 ± 2.1% | 8.52 ± 0.44% | 109 ± 2.8% | 108 ± 1.6% | 97.1 ± 3.9% | 101 ± 1.6% | 95.8 ± 1.3% | 26.9 ± 0.53% |
| Cc1cnc(NC(=O)Nc2cc(Br)c(C)cc2OC[C@@H]2CNCCO2)cn1 | 0.911 | 0.655 | 0.375 | 0.158 | 0.27 | 0.00749 | 0.0015 | 0.00258 | 0.00665 | 0.474 | 0.234 | 0.185 | 0.103 | 0.0749 | 0.0522 | 0.0206 | 0.0139 | 0.0111 | 109.5 ± 0.45% | 103.7 ± 0.67% | 102.8 ± 0.59% | 109 ± 4.1% | 84.09 ± 0.55% | 33.7 ± 0.83% | 72.1 ± 3.7% | 87.9 ± 6.2% | 95 ± 2.5% | 75.8 ± 2.3% | 29.1 ± 0.86% | 26.8 ± 0.86% |
| Cn1cc(CNCC2CCN(c3ncc(C(=O)NO)cn3)CC2)c2ccccc21 | 1.08 | 0.949 | 0.9 | 0.687 | 0.00555 | 0.00221 | 0.0013 | 0.000408 | 0.000355 | 1.02 | 0.835 | 0.708 | 0.585 | 0.288 | 0.0238 | 0.00256 | 0.000673 | 0.000759 | 91.4 ± 0.56% | 78.47 ± 0.52% | 44.98 ± 0.16% | 3.52 ± 0.045% | 2.06 ± 0.065% | 1.27 ± 0.15% | 95.9 ± 2.5% | 86.5 ± 1.7% | 59.3 ± 0.89% | 36.84 ± 0.15% | 25.2 ± 0.97% | 18.08 ± 0.036% |
| c1ccc2c(-c3cnn4cc(-c5ccc(N6CCNCC6)cc5)cnc34)ccnc2c1 | 1.1 | 1.14 | 1.15 | 1.08 | 1.07 | 1.1 | 0.943 | 0.00737 | 0.0056 | 0.953 | 0.778 | 0.956 | 0.795 | 0.719 | 0.83 | 0.534 | 0.0661 | 0.0132 | 90.6 ± 2.2% | 104 ± 0.35% | 93.2 ± 1.9% | 88 ± 1.8% | 62.5 ± 2.2% | 0.919 ± 0.12% | 92.1 ± 4.3% | 95.1 ± 3.5% | 92.2 ± 3.1% | 91.6 ± 2.6% | 71.9 ± 2.9% | 0.885 ± 0.12% |
| CN(C)CC[C@H](CSc1ccccc1)Nc1ccc(S(=O)(=O)NC(=O)c2ccc(N3CCN(Cc4ccccc4-c4ccc(Cl)cc4)CC3)cc2)cc1[N+](=O)[O-] [ABT-737] | 1.02 | 0.975 | 0.941 | 0.965 | 0.92 | 0.869 | 0.803 | 0.197 | 0.00643 | 0.888 | 0.796 | 0.677 | 0.564 | 0.491 | 0.175 | 0.00664 | 0.00508 | 0.00348 | 101 ± 1.5% | 99.05 ± 0.48% | 97.82 ± 0.7% | 98.61 ± 0.42% | 91.97 ± 0.57% | 43.5 ± 2.2% | 122.1 ± 0.59% | 118 ± 1.4% | 113 ± 1.9% | 107 ± 3.3% | 101 ± 3.6% | 43.2 ± 2% |
